Test results taken from patent publication US12454529B2, “Piperazine cyclic ureas” (SIRONAX LTD., priority 2020, dated 2025).

Tested on: HT-29 cells
Assay: HT-29 cell necrosis/necroptosis inhibition (TNF-α + SMAC mimetic + zVAD-FMK; CellTiter-Glo cell viability)
Assay type: cell-based
Settings: Homo sapiens, HT-29, 20 h, read-out: EC50 (Cell activity; Necrosis/Necroptosis Inhibitory Activity, Compounds 1-142)
Summary of the method: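 HT-29 cells (~5,000/well) were switched to FBS-free McCOY's 5A holding TNF-α (10 ng/ml), SMAC mimetic (6 μM) and zVAD-FMK (10 μM), then dosed with a 10-point 1:3 series for 20 h at 37 °C. CellTiter-Glo luminescence gave viability; geometric mean EC50 from duplicates.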

| SMILES | EC50 [nM] |
| --- | --- |
| Cc1nn(CC#N)c(C)c1-c1nc(N2CCN(C(=O)N3N=CC[C@H]3c3cc(F)cc(C#N)c3)CC2)ncc1F [Compound 136, (S)-3-(1-(4-(4-(1-(cyanomethyl)-3,5-dimethyl-1H-pyrazol-4-yl)-5-fluoropyrimidin-2-yl)piperazine-1-carbonyl)-4,5-dihydro-1H-pyrazol-5-yl)-5-fluorobenzonitrile] | 0.1 to 100 |

Same assay, conditions: Homo sapiens; HT-29 cells, TNF-α 10 ng/ml + SMAC mimetic 6 μM + zVAD-FMK 10 μM, 20 hours; geometric mean, 10 points in duplicate; read-out: EC50 (Cell activity; Necrosis/Necroptosis Inhibitory Activity, Compounds 1-142)

| SMILES | EC50 [nM] |
| --- | --- |
| N#Cc1cc(F)cc([C@@H]2CC=NN2C(=O)N2CCN(c3nccc(-n4cc(C(N)=O)cn4)n3)CC2)c1 [Compound 102, (S)-1-(2-(4-(5-(3-cyano-5-fluorophenyl)-4,5-dihydro-1H-pyrazole-1-carbonyl)piperazin-1-yl)pyrimidin-4-yl)-1H-pyrazole-4-carboxamide] | 0.1 to 100 |
| Cc1cnn(C)c1-c1nc(N2CCN(C(=O)N3N=CC[C@H]3c3cc(F)cc(F)c3)CC2)ncc1F [Compound 61, (S)-(5-(3,5-difluorophenyl)-4,5-dihydro-1H-pyrazol-1-yl)(4-(4-(1,4-dimethyl-1H-pyrazol-5-yl)-5-fluoropyrimidin-2-yl)piperazin-1-yl)methanone] | 0.1 to 100 |
| Cc1nn(-c2nc(N3CCN(C(=O)N4N=CC[C@H]4c4cc(F)cc(C#N)c4)CC3)ncc2F)c(C)c1N [Compound 131, (S)-3-(1-(4-(4-(4-amino-3,5-dimethyl-1H-pyrazol-1-yl)-5-fluoropyrimidin-2-yl)piperazine-1-carbonyl)-4,5-dihydro-1H-pyrazol-5-yl)-5-fluorobenzonitrile] | 0.1 to 100 |
| Cc1n[nH]nc1-c1nc(N2CCN(C(=O)N3N=CC[C@H]3c3cc(F)cc(C#N)c3)CC2)ncc1F [Compound 80, (S)-3-fluoro-5-(1-(4-(5-fluoro-4-(5-methyl-2H-1,2,3-triazol-4-yl)pyrimidin-2-yl)piperazine-1-carbonyl)-4,5-dihydro-1H-pyrazol-5-yl)benzonitrile] | 0.1 to 100 |
| NC(=O)Cn1cc(-c2nc(N3CCN(C(=O)N4N=CC[C@H]4c4cc(F)cc(F)c4)CC3)ncc2F)cn1 [Compound 53, (S)-2-(4-(2-(4-(5-(3,5-difluorophenyl)-4,5-dihydro-1H-pyrazole-1-carbonyl)piperazin-1-yl)-5-fluoropyrimidin-4-yl)-1H-pyrazol-1-yl)acetamide] | 0.1 to 100 |
| NC(=O)c1cnn(-c2nc(N3CCN(C(=O)N4N=CC[C@H]4c4cccc(F)c4)CC3)ncc2F)c1 [Compound 110, (S)-1-(5-fluoro-2-(4-(5-(3-fluorophenyl)-4,5-dihydro-1H-pyrazole-1-carbonyl)piperazin-1-yl)pyrimidin-4-yl)-1H-pyrazole-4-carboxamide] | 0.1 to 100 |
| Cn1ccc(-c2nc(N3CCN(C(=O)N4N=CC[C@H]4c4cc(F)cc(F)c4)CC3)ncc2F)n1 [Compound 27, (S)-(5-(3,5-difluorophenyl)-4,5-dihydro-1H-pyrazol-1-yl)(4-(5-fluoro-4-(1-methyl-1H-pyrazol-3-yl)pyrimidin-2-yl)piperazin-1-yl)methanone] | 0.1 to 100 |
| Cc1cc(C(N)=O)cn1-c1nc(N2CCN(C(=O)N3N=CC[C@H]3c3cc(F)cc(F)c3)CC2)ncc1F [Compound 92, (S)-1-(2-(4-(5-(3,5-difluorophenyl)-4,5-dihydro-1H-pyrazole-1-carbonyl)piperazin-1-yl)-5-fluoropyrimidin-4-yl)-5-methyl-1H-pyrrole-3-carboxamide] | 0.1 to 100 |
| N#Cc1cc(F)cc([C@@H]2CC=NN2C(=O)N2CCN(c3ncc(F)c(-c4cn[nH]c4)n3)CC2)c1 [Compound 54, (S)-3-fluoro-5-(1-(4-(5-fluoro-4-(1H-pyrazol-4-yl)pyrimidinyl)piperazine-1-carbonyl)-4,5-dihydro-1H-pyrazol-5-yl)benzonitrile] | 0.1 to 100 |
| N#Cc1cncc([C@@H]2CC=NN2C(=O)N2CCN(c3nccc(-c4cc[nH]n4)n3)CC2)c1 [Compound 38, (S)-5-(1-(4-(4-(1H-pyrazol-3-yl)pyrimidin-2-yl)piperazine-1-carbonyl)-4,5-dihydro-1H-pyrazol-5-yl)nicotinonitrile] | 0.1 to 100 |
| O=C(N1CCN(c2nccc(-n3nnnc3C(F)(F)F)n2)CC1)N1N=CC[C@H]1c1cccc(F)c1 [Compound 103, (S)-(5-(3-fluorophenyl)-4,5-dihydro-1H-pyrazol-1-yl)(4-(4-(5-(trifluoromethyl)-1H-tetrazol-1-yl)pyrimidin-2-yl)piperazin-1-yl)methanone] | 0.1 to 100 |

Same assay, conditions: Homo sapiens; HT-29 cells, TNF-α 10 ng/ml + SMAC mimetic 6 μM + zVAD-FMK 10 μM, 20 hours; geometric mean, 10 points in duplicate; read-out: EC50 (Cell activity; Necrosis/Necroptosis Inhibitory Activity, Compounds 143-323)

| SMILES | EC50 [nM] |
| --- | --- |
| Cc1cnn(C)c1-c1ccc(F)c(N2CCN(C(=O)N3N=CCC3c3ncccc3Cl)CC2)n1 (centres unmarked) [Compound 300, (5-(3-chloropyridin-2-yl)-4,5-dihydro-1H-pyrazol-1-yl)(4-(6-(1,4-dimethyl-1H-pyrazol-5-yl)-3-fluoropyridin-2-yl)piperazin-1-yl)methanone] | 0.1 to 100 |
| N#Cc1cc(F)cc([C@@H]2CC=NN2C(=O)N2CCN(c3ncc(F)c(-n4nccc4C(F)(F)F)n3)CC2)c1 [Compound 304, (S)-3-fluoro-5-(1-(4-(5-fluoro-4-(5-(trifluoromethyl)-1H-pyrazol-1-yl)pyrimidin-2-yl)piperazine-1-carbonyl)-4,5-dihydro-1H-pyrazol-5-yl)benzonitrile] | 0.1 to 100 |
| Cc1nc(C)n(-c2nc(N3CCN(C(=O)N4N=CCC4c4csc(C)n4)CC3)ncc2F)n1 (centres unmarked) [Compound 213, (4-(4-(3,5-dimethyl-1H-1,2,4-triazol-1-yl)-5-fluoropyrimidin-2-yl)piperazin-1-yl)(5-(2-methylthiazol-4-yl)-4,5-dihydro-1H-pyrazol-1-yl)methanone] | 100 to 1000 |
| Cc1nc(C)n(-c2nc(N3CCN(C(=O)N4N=CC[C@@H]4c4cc(F)cc(F)c4F)CC3)ncc2F)n1 [Compound 265, (R)-(4-(4-(3,5-dimethyl-1H-1,2,4-triazol-1-yl)-5-fluoropyrimidin-2-yl)piperazin-1-yl)(5-(2,3,5-trifluorophenyl)-4,5-dihydro-1H-pyrazol-1-yl)methanone] | 100 to 1000 |
| Cc1cnc([C@@H]2CC=NN2C(=O)N2CCN(c3ncc(F)c(-n4nc(C#N)nc4C)n3)CC2)s1 [Compound 319, (S)-1-(5-fluoro-2-(4-(5-(5-methylthiazol-2-yl)-4,5-dihydro-1H-pyrazole-1-carbonyl)piperazin-1-yl)pyrimidin-4-yl)-5-methyl-1H-1,2,4-triazole-3-carbonitrile] | 0.1 to 100 |
| Cc1nn(-c2cc(N3CCN(C(=O)N4N=CC[C@H]4c4cc(F)cc(C#N)c4)CC3)ncn2)c(C)c1Br [Compound 278, (S)-3-(1-(4-(6-(4-bromo-3,5-dimethyl-1H-pyrazol-1-yl)pyrimidin-4-yl)piperazine-1-carbonyl)-4,5-dihydro-1H-pyrazol-5-yl)-5-fluorobenzonitrile] | 0.1 to 100 |
| Cn1cnc(-c2ccc(F)c(N3CCN(C(=O)N4N=CC[C@H]4c4cc(F)cc(C#N)c4)CC3)n2)n1 [Compound 177, (S)-3-fluoro-5-(1-(4-(3-fluoro-6-(1-methyl-1H-1,2,4-triazol-3-yl)pyridin-2-yl)piperazine-1-carbonyl)-4,5-dihydro-1H-pyrazol-5-yl)benzonitrile] | 100 to 1000 |
| Cc1nn(-c2ccnc(N3CCN(C(=O)N4N=CC[C@H]4c4cc(F)cc(C#N)c4)CC3)n2)c(C)c1C#N [Compound 274, (S)-1-(2-(4-(5-(3-cyano-5-fluorophenyl)-4,5-dihydro-1H-pyrazole-1-carbonyl)piperazin-1-yl)pyrimidin-4-yl)-3,5-dimethyl-1H-pyrazole-4-carbonitrile] | 0.1 to 100 |
| Cc1nc(C(F)F)nn1-c1nc(N2CCN(C(=O)N3N=CC[C@H]3c3cc(F)cc(C#N)c3)CC2)ncc1F [Compound 245, (S)-3-(1-(4-(4-(3-(difluoromethyl)-5-methyl-1H-1,2,4-triazol-1-yl)-5-fluoropyrimidinyl)piperazine-1-carbonyl)-4,5-dihydro-1H-pyrazol-5-yl)-5-fluorobenzonitrile] | 0.1 to 100 |
| Cc1nn(-c2ccnc(N3CCN(C(=O)N4N=CC[C@H]4c4cncc(F)c4)CC3)n2)c(C)c1C(N)=O [Compound 285, (S)-1-(2-(4-(5-(5-fluoropyridin-3-yl)-4,5-dihydro-1H-pyrazole-1-carbonyl)piperazin-1-yl)pyrimidin-4-yl)-3,5-dimethyl-1H-pyrazole-4-carboxamide] | 0.1 to 100 |
| Cc1c(N)nn(C)c1-c1nc(N2CCN(C(=O)N3N=CC[C@H]3c3cc(F)cc(F)c3)CC2)ncc1F [Compound 155, (S)-(4-(4-(3-amino-1,4-dimethyl-1H-pyrazol-5-yl)-5-fluoropyrimidinyl)piperazin-1-yl)(5-(3,5-difluorophenyl)-4,5-dihydro-1H-pyrazol-1-yl)methanone] | 0.1 to 100 |
| Cn1nc(C(N)=O)nc1-c1nc(N2CCN(C(=O)N3N=CCC3c3cncc(F)c3)CC2)ncc1F (centres unmarked) [Compound 226, 5-(5-fluoro-2-(4-(5-(5-fluoropyridin-3-yl)-4,5-dihydro-1H-pyrazole-1-carbonyl)piperazin-1-yl)pyrimidin-4-yl)-1-methyl-1H-1,2,4-triazole-3-carboxamide] | 0.1 to 100 |
| Cc1nc(C)n(-c2nc(N3CCN(C(=O)N4N=CCC4c4cc(Br)cc(F)c4F)CC3)ncc2F)n1 (centres unmarked) [Compound 237, (5-(5-bromo-2,3-difluorophenyl)-4,5-dihydro-1H-pyrazol-1-yl)(4-(4-(3,5-dimethyl-1H-1,2,4-triazol-1-yl)-5-fluoropyrimidin-2-yl)piperazin-1-yl)methanone] | 0.1 to 100 |
| Cc1nn(-c2ccnc(N3CCN(C(=O)N4N=CC[C@H]4c4cc(F)cc(C#N)c4)CC3)n2)c(C)c1C(N)=O [Compound 276, (S)-1-(2-(4-(5-(3-cyano-5-fluorophenyl)-4,5-dihydro-1H-pyrazole-1-carbonyl)piperazin-1-yl)pyrimidin-4-yl)-3,5-dimethyl-1H-pyrazole-4-carboxamide] | 0.1 to 100 |
